Assay results: ChEMBL document CHEMBL1201862, “PubChem BioAssay data set” (2004)
Activity calls are given as the source filed them.

How the values were obtained:
[1] = THP-1 cell cytotoxicity, dose response, cytotoxicity control for non-replicating M. tuberculosis project (AID 489025); format: functional
cells = format: functional
[2] = biological target: T1, Mannose-6-phosphate isomerase (Homo sapiens, UniProt P34949); experiment: human PMI inhibitors, high substrate, primary screen, biochemical, fluorescence intensity, high mannose 6-phosphate (AID 1220)
T1 sequence (P34949 whole entry): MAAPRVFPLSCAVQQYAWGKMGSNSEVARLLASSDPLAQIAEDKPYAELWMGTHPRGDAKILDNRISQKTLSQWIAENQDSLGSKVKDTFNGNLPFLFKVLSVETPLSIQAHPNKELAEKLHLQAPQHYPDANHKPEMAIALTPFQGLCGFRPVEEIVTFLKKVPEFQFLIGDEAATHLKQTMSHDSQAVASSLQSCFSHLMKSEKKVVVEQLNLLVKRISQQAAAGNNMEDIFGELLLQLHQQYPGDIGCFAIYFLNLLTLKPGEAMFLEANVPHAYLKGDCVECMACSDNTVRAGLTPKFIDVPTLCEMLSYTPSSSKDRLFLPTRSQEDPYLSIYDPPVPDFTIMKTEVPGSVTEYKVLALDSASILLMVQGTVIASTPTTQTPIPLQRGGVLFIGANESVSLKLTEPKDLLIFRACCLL

Aminopeptidase N = biological target: T2, Aminopeptidase N (Plasmodium falciparum FcB1/Columbia, UniProt O96935); experiment: P. falciparum M1AAP inhibitors, biochemical, fluorogenic H-Leu-NHMec substrate, 1536-well (AID 1445); set-up: species or system Plasmodium falciparum 3D7, 3D7
T2 sequence (O96935 whole entry): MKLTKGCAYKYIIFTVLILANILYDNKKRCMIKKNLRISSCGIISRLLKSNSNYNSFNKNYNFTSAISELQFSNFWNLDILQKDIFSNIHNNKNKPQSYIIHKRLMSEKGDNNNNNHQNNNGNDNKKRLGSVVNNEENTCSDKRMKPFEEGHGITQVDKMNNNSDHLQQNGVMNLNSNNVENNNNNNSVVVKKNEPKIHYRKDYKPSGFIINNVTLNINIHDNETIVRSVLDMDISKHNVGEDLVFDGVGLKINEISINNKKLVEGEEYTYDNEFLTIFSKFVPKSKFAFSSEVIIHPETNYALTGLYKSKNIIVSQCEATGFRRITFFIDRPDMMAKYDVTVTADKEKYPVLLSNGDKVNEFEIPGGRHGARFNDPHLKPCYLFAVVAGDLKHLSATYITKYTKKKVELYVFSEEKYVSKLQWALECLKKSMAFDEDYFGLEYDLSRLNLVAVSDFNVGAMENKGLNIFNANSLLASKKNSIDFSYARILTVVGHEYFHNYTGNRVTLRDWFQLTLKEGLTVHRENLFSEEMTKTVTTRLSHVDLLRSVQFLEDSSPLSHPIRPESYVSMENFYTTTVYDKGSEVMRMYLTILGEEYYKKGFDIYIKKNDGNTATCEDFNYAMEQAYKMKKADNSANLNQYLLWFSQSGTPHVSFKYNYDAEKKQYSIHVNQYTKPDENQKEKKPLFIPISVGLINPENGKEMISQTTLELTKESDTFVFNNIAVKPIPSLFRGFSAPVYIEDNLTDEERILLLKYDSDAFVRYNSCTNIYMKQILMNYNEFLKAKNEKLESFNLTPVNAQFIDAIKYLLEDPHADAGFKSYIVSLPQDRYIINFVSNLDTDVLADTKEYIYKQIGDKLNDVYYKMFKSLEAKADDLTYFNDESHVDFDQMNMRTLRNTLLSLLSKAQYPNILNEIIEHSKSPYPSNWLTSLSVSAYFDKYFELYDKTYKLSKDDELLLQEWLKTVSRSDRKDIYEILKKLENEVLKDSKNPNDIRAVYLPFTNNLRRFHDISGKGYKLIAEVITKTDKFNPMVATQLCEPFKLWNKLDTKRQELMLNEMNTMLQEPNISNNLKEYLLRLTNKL

[3] = biological target: T3, Short transient receptor potential channel 4 (Mus musculus, UniProt Q9QUQ5); experiment: mouse TRPC4 channel activators, dose response, cell-based, HEK293 TRPC4/mu-opioid, Fluo-4 calcium (AID 434937); format: functional
T3 sequence (Q9QUQ5 whole entry): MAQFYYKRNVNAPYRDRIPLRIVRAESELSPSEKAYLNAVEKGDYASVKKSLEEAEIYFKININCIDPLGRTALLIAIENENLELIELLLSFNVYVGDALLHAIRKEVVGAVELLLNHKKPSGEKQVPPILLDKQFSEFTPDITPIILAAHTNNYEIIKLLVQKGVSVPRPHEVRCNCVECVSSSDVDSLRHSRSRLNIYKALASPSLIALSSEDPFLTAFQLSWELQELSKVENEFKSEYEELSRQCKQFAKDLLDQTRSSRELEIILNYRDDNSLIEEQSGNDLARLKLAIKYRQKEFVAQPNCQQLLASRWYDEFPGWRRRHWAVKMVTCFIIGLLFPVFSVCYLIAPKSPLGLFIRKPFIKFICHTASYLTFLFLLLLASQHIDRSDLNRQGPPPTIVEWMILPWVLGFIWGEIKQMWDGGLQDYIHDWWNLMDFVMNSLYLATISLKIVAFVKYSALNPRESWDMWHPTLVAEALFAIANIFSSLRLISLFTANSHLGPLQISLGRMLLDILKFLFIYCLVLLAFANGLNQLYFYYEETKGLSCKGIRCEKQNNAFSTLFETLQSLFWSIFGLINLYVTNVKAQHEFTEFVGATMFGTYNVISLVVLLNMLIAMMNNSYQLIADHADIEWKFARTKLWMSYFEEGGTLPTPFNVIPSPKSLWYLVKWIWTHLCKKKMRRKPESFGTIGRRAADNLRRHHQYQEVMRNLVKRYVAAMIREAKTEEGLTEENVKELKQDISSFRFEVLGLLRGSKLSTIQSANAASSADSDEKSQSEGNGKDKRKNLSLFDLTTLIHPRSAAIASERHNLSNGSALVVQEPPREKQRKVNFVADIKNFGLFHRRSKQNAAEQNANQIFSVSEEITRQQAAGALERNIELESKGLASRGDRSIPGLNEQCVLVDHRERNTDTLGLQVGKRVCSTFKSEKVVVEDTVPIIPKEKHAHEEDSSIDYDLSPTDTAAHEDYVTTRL

HEK293 [4] = experiment: NOD1 signaling inhibitors, primary screen, cell-based, luminescence, uHTS (AID 1578); format: functional; conditions: Homo sapiens
HEK293 [5] = experiment: cells; format: functional, cell-based; conditions: Homo sapiens
[6] = biological target: Nucleotide-binding oligomerization domain-containing protein 2 (Homo sapiens, UniProt Q9HC29); experiment: NOD2 signaling inhibitors, cell-based, luminescence, uHTS, HEK293 (AID 1566); format: functional
HEK293 [7] = experiment: cells; format: functional, cell-based; conditions: Homo sapiens; remark: listed apart in the source
HEK293 [8] = experiment: cells; format: functional, cell-based; conditions: Homo sapiens; remark: listed apart in the source
HEK293 [9] = experiment: NOD2 signaling inhibitors in MDP-stimulated cells, cell-based, uHTS, luminescence (AID 2001); format: functional; conditions: Homo sapiens
Bcl-2-like protein 10 = biological target: T4, Bcl-2-like protein 10 (Homo sapiens, UniProt Q9HD36); experiment: displacers of TR3 peptide from Bcl-B, primary screen, selectivity assay for Bfl-1 inhibitor project, biochemical, fluorescence polarization, FITC-TR3 peptide (AID 748);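 further: fluorescence polarization from a fluorescein-labelled TR3 peptide binding purified Bcl-B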
T4 sequence (Q9HD36 whole entry): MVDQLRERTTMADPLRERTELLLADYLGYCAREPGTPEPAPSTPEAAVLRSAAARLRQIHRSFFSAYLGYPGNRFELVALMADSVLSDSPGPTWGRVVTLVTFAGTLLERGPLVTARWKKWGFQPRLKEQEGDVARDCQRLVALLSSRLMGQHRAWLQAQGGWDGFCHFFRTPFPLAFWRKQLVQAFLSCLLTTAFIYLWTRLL

[10] = biological target: T5, Apoptotic protease-activating factor 1 (Homo sapiens, UniProt O14727); format: functional
T5 sequence (O14727 whole entry): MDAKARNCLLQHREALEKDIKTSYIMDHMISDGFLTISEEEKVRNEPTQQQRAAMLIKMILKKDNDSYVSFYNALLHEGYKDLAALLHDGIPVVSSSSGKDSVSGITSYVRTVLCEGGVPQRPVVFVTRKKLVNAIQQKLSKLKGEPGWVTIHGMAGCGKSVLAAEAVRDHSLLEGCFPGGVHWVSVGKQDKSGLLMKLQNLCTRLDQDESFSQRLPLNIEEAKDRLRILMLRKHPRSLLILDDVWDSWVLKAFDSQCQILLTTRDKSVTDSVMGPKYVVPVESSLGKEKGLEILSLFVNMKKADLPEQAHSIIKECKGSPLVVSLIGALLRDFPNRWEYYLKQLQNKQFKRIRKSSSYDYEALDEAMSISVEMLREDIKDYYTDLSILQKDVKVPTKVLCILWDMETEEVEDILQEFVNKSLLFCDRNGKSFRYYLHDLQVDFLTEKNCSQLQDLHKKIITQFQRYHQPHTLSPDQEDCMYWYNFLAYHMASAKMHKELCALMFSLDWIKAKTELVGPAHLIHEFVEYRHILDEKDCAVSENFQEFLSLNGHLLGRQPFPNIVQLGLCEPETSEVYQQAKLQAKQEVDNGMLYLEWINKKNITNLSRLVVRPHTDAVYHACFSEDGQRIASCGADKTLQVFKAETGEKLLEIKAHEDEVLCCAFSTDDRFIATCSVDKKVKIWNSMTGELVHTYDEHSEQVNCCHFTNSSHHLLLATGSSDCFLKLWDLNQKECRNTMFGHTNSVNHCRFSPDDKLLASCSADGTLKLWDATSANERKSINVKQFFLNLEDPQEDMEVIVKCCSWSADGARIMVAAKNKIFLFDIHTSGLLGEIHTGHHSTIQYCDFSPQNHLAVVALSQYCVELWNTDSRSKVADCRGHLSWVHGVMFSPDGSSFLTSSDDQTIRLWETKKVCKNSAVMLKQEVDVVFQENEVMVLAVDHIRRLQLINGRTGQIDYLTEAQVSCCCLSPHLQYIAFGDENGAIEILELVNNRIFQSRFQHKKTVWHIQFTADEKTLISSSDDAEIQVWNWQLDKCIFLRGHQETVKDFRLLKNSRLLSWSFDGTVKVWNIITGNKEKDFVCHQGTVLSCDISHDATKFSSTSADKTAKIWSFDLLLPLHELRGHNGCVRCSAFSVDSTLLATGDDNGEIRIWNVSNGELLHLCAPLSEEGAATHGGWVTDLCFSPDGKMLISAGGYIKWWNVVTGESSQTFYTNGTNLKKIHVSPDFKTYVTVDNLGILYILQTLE

[11] = biological target: Intestinal-type alkaline phosphatase (Homo sapiens, UniProt P09923); experiment: Dose Response confirmation of uHTS hits from a small molecule inhibitors of human intestinal alkaline phosphatase via a luminescent assay. [Related pubchem assays (depositor defined):AID2544, AID2574]; format: functional
[12] = Jurkat T cell cytotoxicity, dose response, cytotoxicity control for P. falciparum gametocyte viability project, luminescence (AID 1117277); format: functional, cell-based;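 further: potency reflects loss of cellular ATP meaning fewer viable cells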
[13] = P. falciparum late gametocyte killing, dose response, luminescence (AID 1117278); format: functional, cell-based;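 further: gametocytes exposed to compound for 24 hours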
Cytochrome P450 2C9 = Cytochrome P450 2C9 (Homo sapiens, UniProt P11712)
Cytochrome P450 2C9, sequence (P11712 whole entry): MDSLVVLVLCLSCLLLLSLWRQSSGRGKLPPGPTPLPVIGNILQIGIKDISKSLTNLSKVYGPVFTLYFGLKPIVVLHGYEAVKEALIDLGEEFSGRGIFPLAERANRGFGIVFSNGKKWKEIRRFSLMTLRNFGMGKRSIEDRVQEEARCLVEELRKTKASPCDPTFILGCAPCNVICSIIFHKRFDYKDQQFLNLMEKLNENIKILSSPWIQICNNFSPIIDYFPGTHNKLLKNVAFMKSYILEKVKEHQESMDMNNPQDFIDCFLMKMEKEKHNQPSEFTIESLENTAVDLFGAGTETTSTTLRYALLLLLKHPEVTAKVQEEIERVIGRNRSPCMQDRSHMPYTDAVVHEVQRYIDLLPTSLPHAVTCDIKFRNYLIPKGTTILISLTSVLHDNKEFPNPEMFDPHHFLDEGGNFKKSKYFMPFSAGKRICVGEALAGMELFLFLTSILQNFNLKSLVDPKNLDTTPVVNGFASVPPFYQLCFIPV

Intestinal-type alkaline phosphatase, sequence (P09923 whole entry): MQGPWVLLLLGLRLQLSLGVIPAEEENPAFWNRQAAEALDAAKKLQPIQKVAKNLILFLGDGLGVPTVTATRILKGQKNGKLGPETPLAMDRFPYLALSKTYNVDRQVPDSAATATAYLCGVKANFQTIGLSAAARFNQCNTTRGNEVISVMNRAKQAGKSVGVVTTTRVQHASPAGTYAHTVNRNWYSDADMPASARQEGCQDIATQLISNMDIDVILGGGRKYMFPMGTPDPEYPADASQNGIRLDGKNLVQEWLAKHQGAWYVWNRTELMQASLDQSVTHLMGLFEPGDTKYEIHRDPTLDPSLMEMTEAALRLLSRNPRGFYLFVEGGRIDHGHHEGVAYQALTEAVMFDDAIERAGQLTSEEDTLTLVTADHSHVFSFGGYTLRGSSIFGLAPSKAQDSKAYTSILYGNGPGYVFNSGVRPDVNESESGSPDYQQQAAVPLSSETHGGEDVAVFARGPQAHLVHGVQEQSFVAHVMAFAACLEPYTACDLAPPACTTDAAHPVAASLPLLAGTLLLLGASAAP
Nucleotide-binding oligomerization domain-containing protein 2, sequence (Q9HC29 whole entry, the tested form may be a part): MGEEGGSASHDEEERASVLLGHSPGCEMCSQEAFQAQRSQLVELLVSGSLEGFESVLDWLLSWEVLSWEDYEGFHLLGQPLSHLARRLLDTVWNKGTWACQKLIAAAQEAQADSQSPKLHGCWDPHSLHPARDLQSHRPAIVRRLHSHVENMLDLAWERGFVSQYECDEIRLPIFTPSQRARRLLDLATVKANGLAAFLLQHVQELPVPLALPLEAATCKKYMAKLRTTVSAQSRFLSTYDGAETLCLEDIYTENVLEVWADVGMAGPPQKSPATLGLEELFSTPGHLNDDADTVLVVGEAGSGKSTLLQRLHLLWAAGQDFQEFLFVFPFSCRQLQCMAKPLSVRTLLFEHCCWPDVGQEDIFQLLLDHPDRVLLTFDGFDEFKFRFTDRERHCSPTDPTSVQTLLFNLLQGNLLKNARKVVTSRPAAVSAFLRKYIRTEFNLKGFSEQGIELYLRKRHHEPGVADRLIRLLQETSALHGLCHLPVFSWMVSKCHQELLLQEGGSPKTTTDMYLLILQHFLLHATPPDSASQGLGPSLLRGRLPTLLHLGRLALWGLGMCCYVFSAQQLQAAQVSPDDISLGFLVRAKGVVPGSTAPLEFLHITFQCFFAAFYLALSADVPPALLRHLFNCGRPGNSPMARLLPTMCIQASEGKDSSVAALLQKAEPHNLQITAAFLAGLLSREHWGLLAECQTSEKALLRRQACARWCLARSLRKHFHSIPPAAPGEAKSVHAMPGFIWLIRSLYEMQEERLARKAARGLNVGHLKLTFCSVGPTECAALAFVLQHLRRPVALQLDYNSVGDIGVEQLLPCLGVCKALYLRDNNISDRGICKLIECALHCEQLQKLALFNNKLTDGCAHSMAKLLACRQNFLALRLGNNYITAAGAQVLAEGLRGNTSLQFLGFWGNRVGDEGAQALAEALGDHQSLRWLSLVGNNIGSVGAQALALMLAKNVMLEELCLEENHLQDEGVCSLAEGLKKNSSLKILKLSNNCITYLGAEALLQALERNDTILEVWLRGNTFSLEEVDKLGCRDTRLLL

Q: Which CC50 [1] does the source give for `O=C(CCN1CCOCC1)c1ccc(Br)cc1` here?
A: > 40 µM (active)

Q: What about the IC50 (cells) of the same compound?
A: 11.8 µM (active)

Q: And the IC50 [2]?
A: 43 µM (active)

Q: For `O=C(CNC(=O)c1ccncc1)N/N=C/c1cc(Br)ccc1O`, which IC50 (Aminopeptidase N) is on record?
A: 24.5 µM (active)

Q: With `O=C(O)c1ccc(-c2ccc(/C=N/Nc3ccc([N+](=O)[O-])cc3)o2)cc1` as the compound, how does the IC50 (Aminopeptidase N) read?
A: 43.1 µM (active)

Q: And the EC50 [3]?
A: 2.11 µM (active)

Q: For `COc1ccc(C)cc1NC(=O)CSc1ccc(-c2ccco2)nn1`, which EC50 (HEK293 [4]) is on record?
A: > 20 µM (inactive)

Q: And the IC50 (HEK293 [5])?
A: > 20 µM (inactive)

Q: What about the EC50 [6] of the same compound?
A: > 20 µM (inactive)

Q: What about the IC50 (HEK293 [7]) of the same compound?
A: > 20 µM (inactive)

Q: And the IC50 (HEK293 [8])?
A: > 20 µM (inactive)

Q: What about the IC50 (HEK293 [9]) of the same compound?
A: 9.49 µM (inactive)

Q: What does the source list for `c1cc2c3c(cccc3c1)NC1(CCCCCC1)N2`?
A: IC50 (Bcl-2-like protein 10): 78.4 µM (inactive); IC50 [10]: 6.58 µM (active)

Q: Which IC50 [11] does the source give for `CCn1cnc2sc(C(=O)O)c(C)c2c1=O` here?
A: > 100 µM (inactive)

Q: With `O=C(Cc1c(F)cccc1Cl)Nc1ncc([N+](=O)[O-])s1` as the compound, how does the IC50 [12] read?
A: > 83.3 µM (inactive)

Q: And the CC50 [1]?
A: > 40 µM (active)

Q: What about the IC50 [13] of the same compound?
A: > 109 µM (inactive)

Q: For `CC(NC(=O)CN(C)S(=O)(=O)c1c[nH]cn1)c1ccccc1` (configuration not stated), which IC50 (Aminopeptidase N) is on record?
A: 54.6 µM (active)

Q: With `CCOC(=O)c1c(NC(=O)Cn2cc([N+](=O)[O-])cn2)sc2c1CCC2` as the compound, how does the AC50 (Cytochrome P450 2C9) read?
A: 3.55 µM (inconclusive)

Q: And the IC50 [11]?
A: > 100 µM (inactive)

Q: With `O=C(COC(=O)c1ccc(S(=O)(=O)NCc2ccco2)cc1)NCC1CCCCC1` as the compound, how does the IC50 (Bcl-2-like protein 10) read?
A: > 100 µM (inactive)
